Measurements taken from the supplement of paper PMC10307832.

How the values were obtained:
Assay in all cases: relative viability (nuclei count vs DMSO), 5 days (fraction); higher = more cells survive
IPA-3 + Palbociclib = compound: C1=CC=C2C(=C1)C=CC(=C2SSC3=C(C=CC4=CC=CC=C43)O)O [IPA-3] + CC(=O)c1c(C)c2cnc(Nc3ccc(N4CCNCC4)cn3)nc2n(C2CCCC2)c1=O [Palbociclib] (partner 0.5 µM)
Procedure, shortened: (§1)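 Dosing by pin tool came one day after lung cancer cell lines were seeded in 1536-well plates, using either one drug or a fixed anchor-drug dose plus five library-drug doses (not always all listed) in √10 steps. After 5 days, nuclei were counted on 4× images. Relative viability is treated-well nuclei count divided by vehicle-well nuclei count, and values are medians of duplicate plates.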

RAF265 + OSI-027 = compound: Cn1c(Nc2ccc(C(F)(F)F)cc2)nc2cc(Oc3ccnc(-c4ncc(C(F)(F)F)[nH]4)c3)ccc21 [RAF265] + COc1cccc2cc(-c3nc([C@H]4CC[C@H](C(=O)O)CC4)n4ncnc(N)c34)[nH]c12 [OSI-027] (partner 0.5 µM)
Procedure, shortened: as §1

IPA-3 + Bortezomib = compound: C1=CC=C2C(=C1)C=CC(=C2SSC3=C(C=CC4=CC=CC=C43)O)O [IPA-3] + CC(C)C[C@H](NC(=O)[C@H](Cc1ccccc1)NC(=O)c1cnccn1)B(O)O [Bortezomib] (partner 0.002 µM)
Procedure, shortened: as §1

Doramapimod + Linsitinib = compound: Cc1ccc(-n2nc(C(C)(C)C)cc2NC(=O)Nc2ccc(OCCN3CCOCC3)c3ccccc23)cc1 [Doramapimod] + C[C@]1(O)C[C@@H](c2nc(-c3ccc4ccc(-c5ccccc5)nc4c3)c3c(N)nccn32)C1 [Linsitinib] (partner 1 µM)
Procedure, shortened: as §1

Cell Line	relative viability (IPA-3 + Palbociclib; first compound 0.2 µM)	relative viability (IPA-3 + Palbociclib; first compound 0.6325 µM)	relative viability (IPA-3 + Palbociclib; first compound 2 µM)	relative viability (IPA-3 + Palbociclib; first compound 6.325 µM)	relative viability (IPA-3 + Palbociclib; first compound 20 µM)	relative viability (RAF265 + OSI-027; first compound 0.01 µM)	relative viability (RAF265 + OSI-027; first compound 0.03162 µM)	relative viability (RAF265 + OSI-027; first compound 0.1 µM)	relative viability (RAF265 + OSI-027; first compound 0.3162 µM)	relative viability (RAF265 + OSI-027; first compound 1 µM)	relative viability (IPA-3 + Bortezomib; first compound 0.2 µM)	relative viability (IPA-3 + Bortezomib; first compound 0.6325 µM)	relative viability (IPA-3 + Bortezomib; first compound 2 µM)	relative viability (IPA-3 + Bortezomib; first compound 6.325 µM)	relative viability (IPA-3 + Bortezomib; first compound 20 µM)	relative viability (Doramapimod + Linsitinib; first compound 0.02 µM)	relative viability (Doramapimod + Linsitinib; first compound 0.06325 µM)	relative viability (Doramapimod + Linsitinib; first compound 0.2 µM)	relative viability (Doramapimod + Linsitinib; first compound 0.6325 µM)	relative viability (Doramapimod + Linsitinib; first compound 2 µM)
201T	0.363	0.38	0.391	0.342	0.388	0.794	0.799	0.788	0.58	0.351	1.08	0.931	1.08	1.12	1.13	1.05	1.07	0.971	1.03	0.958
A549																0.551	0.532	0.567	0.794	0.523
A-427	0.531	0.499	0.511	0.515	0.52	0.4	0.334	0.312	0.18	0.129	0.976	0.974	1.01	0.942	1.01	1.17	1.21	1.24		1.16
ABC-1	0.733	0.81	0.392	0.748	0.851	0.39	0.48	0.365	0.408	0.31	0.297	0.345		0.295	0.257	0.876	0.944	0.744	0.942	0.806
BEN	0.432	0.471	0.43	0.532	0.457	0.261	0.29	0.312	0.311	0.293	0.807	0.707	0.806	0.823	0.799	0.834	0.893	0.906	0.769	0.854
CAL-12T	0.718	0.342	0.404	0.28	0.421	0.633	0.45	0.313	0.281	0.327	0.956	0.987	0.847	0.935	1.15	0.806	0.804	0.745	0.851	0.627
COR-L23	0.283	0.301	0.316	0.266	0.118	0.843	0.723	0.501	0.278	0.168	1.12	0.946	1.06	0.939	0.802	0.962	0.917	0.827	0.933	0.931
COR-L 105	0.409	0.275	0.405	0.393	0.399	0.798	0.676	0.608	0.315	0.43	0.856	0.885	0.7	0.879	0.603	0.968	0.94	0.853	1.01	0.735
Calu-6											1.02	1.04	0.895	0.959	0.837	1.02	0.978	0.942	1.04	0.966
ChaGo-K-1	0.952	0.824	0.923	0.955	1.02	0.563	0.628	0.5	0.44	0.38	1.03	1.1	0.861	1.08	1.31					
EBC-1											0.488	0.548	0.546	0.546	0.581	0.924	0.811	0.826	0.937	0.817
EKVX	0.352	0.418	0.34	0.456	0.409	0.689	0.666	0.744	0.483	0.534	1.31	0.995	1.12	0.988	1.54	1.03	0.972	0.902	1.15	0.95
EMC-BAC-2	0.537	0.509	0.527	0.516	0.532	0.375	0.342	0.219	0.232	0.134	1.16	1.11	1.04	1.04	1.22	0.793	0.821	0.789	0.86	0.834
EPLC-272H	0.31	0.38	0.316	0.304	0.327	0.251	0.288	0.237	0.218	0.184	0.87	0.95	0.816	0.861	1.13	1.1	1.02	1.07	1.23	1.01
H3255	0.306	0.308	0.29	0.298	0.272	0.741	0.601	0.563		0.473	0.818	0.709	0.601	0.754	0.846	1.02	0.908	0.913	0.97	0.871
HARA	0.255	0.24	0.255	0.27	0.235	0.491	0.417	0.423	0.187	0.101	1.16	1.06	1.13	1.01	1.24	0.943	0.901	0.904	0.987	0.805
HCC-15	0.889	0.78	0.462	0.697	0.704	0.674	0.605	0.566	0.26	0.304	1.34	0.99	0.838	1.02	1.21	0.846	0.863	0.889	0.944	0.806
HCC-44	0.966	1.02	0.979	0.948	0.934	0.735	0.479	0.636	0.449	0.477	0.918	0.852	0.897	0.894	0.835	0.662	0.669	0.675	0.634	0.626
HCC-78	0.53	0.435	0.485	0.486	0.484	0.35	0.424	0.396	0.346	0.341	0.624	0.359	0.555	0.479	0.675	0.399	0.429	0.466	0.527	0.514
HCC-366	0.479	0.382	0.374	0.378	0.474	1.04	0.939	0.834	0.165	0.107	1.36	0.996	1.04	1.08	1.25	0.561	0.515	0.475	0.673	0.548
HCC-827	0.559	0.475	0.484	0.53	0.568	0.754	0.783	0.708		0.649	1.1	0.936	1.01	0.996	1	1	0.918	0.952	0.933	0.752

Cell Line	relative viability (IPA-3 + Palbociclib; first compound 0.2 µM)	relative viability (IPA-3 + Palbociclib; first compound 0.6325 µM)	relative viability (IPA-3 + Palbociclib; first compound 2 µM)	relative viability (IPA-3 + Palbociclib; first compound 6.325 µM)	relative viability (IPA-3 + Palbociclib; first compound 20 µM)	relative viability (RAF265 + OSI-027; first compound 0.01 µM)	relative viability (RAF265 + OSI-027; first compound 0.03162 µM)	relative viability (RAF265 + OSI-027; first compound 0.1 µM)	relative viability (RAF265 + OSI-027; first compound 0.3162 µM)	relative viability (RAF265 + OSI-027; first compound 1 µM)	relative viability (IPA-3 + Bortezomib; first compound 0.2 µM)	relative viability (IPA-3 + Bortezomib; first compound 0.6325 µM)	relative viability (IPA-3 + Bortezomib; first compound 2 µM)	relative viability (IPA-3 + Bortezomib; first compound 6.325 µM)	relative viability (IPA-3 + Bortezomib; first compound 20 µM)	relative viability (Doramapimod + Linsitinib; first compound 0.02 µM)	relative viability (Doramapimod + Linsitinib; first compound 0.06325 µM)	relative viability (Doramapimod + Linsitinib; first compound 0.2 µM)	relative viability (Doramapimod + Linsitinib; first compound 0.6325 µM)	relative viability (Doramapimod + Linsitinib; first compound 2 µM)
HOP-62	0.435	0.365	0.414	0.451	0.513	0.807	0.774	0.698	0.731	0.631	1.09	0.858	0.722	0.701	0.93	0.88	1	1.17	0.91	0.992
IA-LM											0.883	0.808	0.842	0.703	0.546	0.498	0.549	0.701	0.587	0.731
LC-2-ad	0.545	0.495	0.479	0.451	0.518	0.969	0.798	0.902	0.442	0.378	1	0.974	1.05	0.983	0.998	0.856	0.802	0.95	0.88	0.684
LK-2	0.847	0.643	0.709	0.818	0.706	0.212	0.202	0.176	0.177	0.203						0.284	0.388	0.348	0.42	0.22
NCI-H358	0.141	0.117	0.153	0.14	0.157	0.864	0.617	0.305	0.194	0.18						0.68	0.598	0.611	0.722	0.667
NCI-H522	1.16	1.14	0.893	1.18	1.31	0.79	0.741	0.655	0.541	0.628										
NCI-H596						0.982	0.751	0.784	0.563	0.554	1.33	1.12	1.18	0.914	1.17	0.99	1.03	1.02	1.05	1
NCI-H1299											0.995	1.01	0.996	0.996	1	1	1.04	1.01	1.06	0.985
NCI-H1395	0.681	0.524	0.634	0.608	0.61	0.72	0.571	0.638	0.537	0.487						1.11	1.04	1.17	1.13	0.997
NCI-H1563						0.769	0.772	0.738	0.706	0.739	1.03	0.689	0.801	0.996	0.846	1.17	1.23	1.25	1.25	1.2
NCI-H1623						0.462	0.43	0.467	0.291	0.364										
NCI-H1648	0.222	0.223	0.248	0.263	0.229	0.266	0.298	0.277	0.3	0.246										
NCI-H1650	0.472	0.314	0.328	0.311	0.327	0.631	0.598	0.8	0.456	0.649	0.223	0.193	0.186	0.283	0.27					
NCI-H1703											0.265	0.288	0.463	0.579	0.445	0.637	0.601	0.68	0.908	0.532
NCI-H1793	0.345	0.288	0.311	0.318	0.371	0.308	0.297	0.224		0.188						0.758	0.76	0.827	0.932	0.719
NCI-H1944	0.333	0.326	0.389	0.384	0.334	0.516	0.5	0.357	0.317	0.237						1.05	1.14	1.03	1.31	1.08
NCI-H2170	0.447	0.389	0.364	0.334	0.441	0.74	0.512	0.623	0.333	0.452										
NCI-H2342	0.6	0.479	0.553	0.57	0.575	0.598	0.722	0.598	0.525	0.514										
SK-MES-1	0.326	0.308	0.332	0.277	0.238	0.544	0.355	0.186	0.223	0.187						1.08	1	0.996	1.09	0.909
SW 900	0.536	0.518	0.545	0.49	0.587	0.569	0.661	0.464	0.378	0.391										
